# Tests used:
# Type in all cases: cell-based, human
# PAECs [1] = assay: Apoptosis by caspase-3/7 activity in PAECs
# Text: (§1) Cell culture: Primary human pulmonary artery endothelial cells (PAECs) and human pulmonary artery smooth muscle cells (PASMCs) were purchased from Lonza (302-05A, CC-2581). Of note, the same two male donors were the source of all PAECs in the experiments shown. Two additional male donors were the source for all PASMCs in the experiments shown. Cells from these and any donors were characterized by flow cytometry for consistent expression of cell surface markers and by RNA (RT-qPCR) analysis of endothelial and smooth muscle gene expression. PAECs were cultured in EGM-2 media (CC-3121) along with supplements (CC-4133), and PASMCs were cultured in SmGM-2 culture media (Lonza, CC-3182) at 5% CO2 in a humidified incubator.
# Human recombinant galectin-8 (1305-GA-050) was purchased from R&D Systems and was used at a working concentration of 30 nM.
# For hypoxia exposure, cells were plated in 6-well cell culture plates at 1×10^5 cells/well, grown for 24 hr and placed into a normobaric hypoxia chamber (1% O2) for 24 h under specific treatment conditions. Namely, for I-BET and siLGALS8 exposures, cells were either pre-treated with I-BET/vehicle control (VC) or transfected with siLgals8/Scr for 24 h. Then, they were cultured in basal media at 1% 02. After 24 h, caspase activity and mitochondrial superoxide levels were quantified. To detect activation status of pSTAT1/STAT1 by immunoblot, cells were exposed to 8 h of hypoxia.
# (§2) In IL-6/sIL-6R+hypoxia experiments, a human recombinant IL-6/IL-6R alpha protein chimera (25 ng/ml, Millipore) was administered at 70-80% confluency for 48 h in complete media along with vehicle control (DMSO, Sigma-41639). BRD2889 (1 uM) vs. vehicle control were added, as indicated, and placed into a hypoxia chamber for 24 h. The hypoxia chamber (modular incubator chamber) was obtained from Billups-Rothenberg Inc. (Del Mar, Calif) and placed in regulated CO2 incubator at 37° C.
# Cellular apoptosis: Caspase-3/7 activity was quantified using the Caspase-Glo 3/7 Assay (Promega), according to manufacturer's instructions. Caspase-3/7 activity was normalized to total protein content determined by BCA method (Thermo Fisher Scientific).
# PAECs [2] = assay: Global transcriptome microarray in PAECs; settings: transcriptional array, hypoxia +/- BRD2889
# Text: The gene expression was normalized with Robust Multiarray Analysis (RMA). For BRD2889, the same approach was employed using Affymetrix Clariom S array on RNA isolated from PAECs treated with BRD2889 or vehicle and subjected to either hypoxia or normoxia. Differentially expressed genes were defined as any gene for which the FDR adjusted p-value was below 0.05 (n=3/grp). Reversed genes were further defined as those genes that were differentially expressed in both (hypoxia versus normoxia) and in (hypoxia+BRD2889 versus hypoxia)+vehicle as well as were regulated in opposite directions. Similarly, for I-BET that were differentially expressed in IL-1β+VC versus control and IL-1β+I-BET versus IL-1β+VC and were regulated in opposite directions. The data for both I-BET and BRD2889 have been submitted to the NCBI Gene Expression Omnibus with accession numbers GSE125508 and GSE160255, respectively.
# mitochondrial Complex I [3] = assay: Mitochondrial Complex I activity in PAECs
# PAECs [4] = assay: BrdU proliferation assay in PAECs
# Method: BrdU growth assay: Cell proliferation was assayed relative to day 0 using a BrdU Cell Proliferation Assay Kit (#6813, Cell Signaling) according to the manufacturer's protocol after incubation for 2 h with BrdU.
# C43 genes ISCU and mTOR = assay: RT-qPCR of Cluster 43 genes in PASMCs; settings: BRD2889 5 uM
# Text: as §1
# RT-qPCR analysis: Cells were lysis in 1 ml of QiaZol reagent (Qiagen). Total RNA content was extracted using the RNeasy kit (Qiagen), according to the manufacturer's instructions. Total RNA concentration was determined using a BioTek Synergy multimode plate reader. Messenger RNAs were reverse transcribed to generate cDNA using the Multiscript RT kit (Thermo Fisher Scientific). cDNA for specific gene targets was amplified and quantified via fluorescently-labeled Taqman primer sets and Taqman fast advanced master mix (Thermo Fisher Scientific) using an Applied Biosystems QuantStudio 6 Flex Real-Time PCR System.
# mitochondrial Complex I [5] = assay: Mitochondrial Complex I activity in PASMCs; settings: IL-6/sIL-6R + hypoxia
# Method: as §2
# Mitochondria isolation: Mitochondrial fraction from cultured PAECs with drug and siGSTP1 using the Mammalian Mitochondria Isolation Kit for Tissue & Cultured Cells (Biovision, Inc.) according to the manufacturer's instructions.
# Measurement of mitochondrial complex activities: Complex I activity of isolated mitochondria were measured using Complex I Enzyme Activity Microplate assay kit (Abcam, ab109721) according to the manufacturer's protocol. These enzymes were captured within the wells of the microplate coated by the corresponding complex enzyme antibody, and activities were detected colorimetrically.
# [6] = hypoxic PAECs with siRNA knockdown of ISCU
smiles,measurement,setting,value
COc1ccc(C#CC2CCCN(C(=O)/C=C/c3cc(OC)c(OC)c(OC)c3)C2=O)cc1 (stereo not shown) [BRD2889],apoptosis (caspase 3/7),"PAECs [1]; PAECs, IL-6/sIL-6R + hypoxia",reduced apoptosis
same,apoptosis (caspase 3/7 activity),PAECs [1]; hypoxic PAECs,reversed the increase
same,hypoxic increase in apoptosis,PAECs [1]; [6],did not reverse
same,number of genes altered by hypoxia but reversed by drug,PAECs [2],3830 genes
same,mitochondrial Complex I activity,"mitochondrial Complex I [3]; PAECs, IL-6/sIL-6R + hypoxia",partially rescued
same,iron-sulfur-dependent mitochondrial Complex I activity,mitochondrial Complex I [3]; hypoxic PAECs,reversed the decrease
same,hypoxia-induced decrease in mitochondrial Complex I activity,mitochondrial Complex I [3]; [6],did not reverse
same,proliferation (BrdU),"PAECs [4]; PAECs, IL-6/sIL-6R + hypoxia",increased proliferation
same,proliferation (BrdU incorporation),PAECs [4]; hypoxic PAECs,reversed the decrease
same,hypoxia-induced decrease in proliferation,PAECs [4]; [6],did not reverse
same,hypoxia-induced reduction in ISCU transcript,C43 genes ISCU and mTOR,unaffected
same,mTOR transcript,C43 genes ISCU and mTOR; hypoxia,no change
same,mitochondrial Complex I activity,mitochondrial Complex I [5],did not affect

# — patent publication US12599592B2, “Therapeutic small molecules for treatment of pulmonary hypertension” (UNIVERSITY OF PITTSBURGH—OF THE COMMONWEALTH SYSTEM OF …, priority 2020, dated 2026)
